The record followed here is patent publication US11980626B2, “Compositions for treatment of breast and prostate cancer” (Kembi Therapeutics Pty Ltd, priority 2017, dated 2024).

In assay [1] the test system is CYP17. Put plainly: Endocrine profile (steroid hormone changes) in prostate cancer patients. In kind it is in vivo, human. As to conditions: seviteronel 600 mg once daily, FIG. 7. How it is done: Males that fulfill the Inclusion Criteria captured in Table 1 were administered seviteronel (600 mg; 4×150 mg tablets) once daily until any of the criteria in Table 2 are met. Table 3 captures the clinical screening data and screening schedule for the various screens for each of the male subjects.
Males that fulfill the Inclusion Criteria captured in Table 1 were administered seviteronel (600 mg; 4×150 mg tablets) and dexamethasone (0.5 mg) once daily until any of the criteria in Table 2 are met. Table 3 captures the clinical screening data and screening schedule for the various screens for each of the male subjects.
(§1) Blood samples were collected for evaluation of steroid hormone changes as a pharmacodynamics indicator of CYP17 inhibition over time e.g., DHEA, DHEA-S, androstenedione, testosterone, cortisol, corticosterone, progesterone, pregnenolone, estradiol, estrone and ACTH).

Assay [2] has as its system CYP17. Put plainly: Progesterone response in ER+ breast cancer patients. In kind it is in vivo, human. As to conditions: vs. patients treated with abiraterone and prednisone (Abi/Pred), FIG. 20. How it is done:
Subjects that fulfill the Inclusion Criteria captured in Table 4 were administered seviteronel (600 mg for male subjects, 4×150 mg tablets; 450 mg for female subjects, 3×150 mg tablets) once daily until any of the criteria in Table 2 are met. Table 5 captures the clinical screening data and screening schedule for the various screens for each of the male subjects.
Subjects that fulfill the Inclusion Criteria captured in Table 4 were administered seviteronel (600 mg for male subjects, 4×150 mg tablets; 450 mg for female subjects, 3×150 mg tablets) and dexamethasone (0.5 mg) once daily until any of the criteria in Table 2 are met. Table 5 captures the clinical screening data and screening schedule for the various screens for each of the male subjects.
as §1

On to `CC(C)C(O)(c1ccc2cc(OC(F)F)c(OC(F)F)cc2c1)c1c[nH]nn1` (centres unmarked) [SEVI, 1-(6,7-Bis(difluoromethoxy)naphthalen-2-yl)-2-methyl-1-(1H-1,2,3-triazol-4-yl)propan-1-ol], for which, in the assay with CYP17 [1], the “"up-stream" steroids change” value is given as “limited increase”, the ACTH change result was “modest ACTH increase”, the androgen change entry was “modest androgen decline” and the cortisol change entry was “modest cortisol decrease”. In addition, the increase in progesterone entry in the assay on CYP17 [2] is recorded as “lack of clinically relevant increase”.
